Reference: US20250289789A1, “REVERSIBLE LYSINE COVALENT MODIFIERS OF CDK2 AND USES THEREOF” (Terremoto Biosciences, Inc., priority 2023, published 2025)
Read-outs that look alike come from different tables or passages of the source.

Key:
Assay type in all cases: cell-based
[1] = biological target: T1, CDK4-NanoLuc fusion with CCND1 in 293T or 293 cells (Homo sapiens, UniProt P11802); experiment: NanoBRET Target Engagement (TE) Intracellular Kinase Assay, CDK4/CCND1; details: NanoBRET TE intracellular kinase assay, 2-hour incubation, read-out: NanoBRET-CDK4/D1 IC50
T1 construct: host or cells: 293T (ATCC CRL-3216) or 293 (ATCC CRL-1573)
T1 sequence (P11802 whole entry, the tested form may be a part): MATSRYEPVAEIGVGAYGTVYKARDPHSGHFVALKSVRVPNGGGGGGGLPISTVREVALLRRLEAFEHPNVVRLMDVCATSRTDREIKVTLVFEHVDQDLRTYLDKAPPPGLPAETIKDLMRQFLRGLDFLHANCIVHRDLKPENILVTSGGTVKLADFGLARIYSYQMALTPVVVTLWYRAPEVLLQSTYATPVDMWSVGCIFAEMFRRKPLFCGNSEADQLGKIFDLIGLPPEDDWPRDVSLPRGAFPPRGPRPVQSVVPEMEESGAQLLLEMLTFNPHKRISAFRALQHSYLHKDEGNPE
T1 sequence (P24385 whole entry partner, the tested form may be a part): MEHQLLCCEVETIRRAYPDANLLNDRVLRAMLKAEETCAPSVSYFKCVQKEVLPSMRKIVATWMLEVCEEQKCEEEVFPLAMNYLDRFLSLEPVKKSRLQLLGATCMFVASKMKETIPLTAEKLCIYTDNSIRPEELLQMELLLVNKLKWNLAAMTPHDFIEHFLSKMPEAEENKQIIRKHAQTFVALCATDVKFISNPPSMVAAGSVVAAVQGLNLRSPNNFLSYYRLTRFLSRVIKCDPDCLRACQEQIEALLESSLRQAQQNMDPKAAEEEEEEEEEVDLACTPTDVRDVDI

[2] = biological target: T2, CDK1-NanoLuc fusion with CCNB1 in 293T or 293 cells (Homo sapiens, UniProt P06493); experiment: NanoBRET Target Engagement (TE) Intracellular Kinase Assay, CDK1/CCNB1; details: NanoBRET TE intracellular kinase assay, 2-hour incubation, read-out: NanoBRET-CDK1/B1 IC50
T2 construct: host or cells: 293T (ATCC CRL-3216) or 293 (ATCC CRL-1573)
T2 sequence (P06493 whole entry, the tested form may be a part): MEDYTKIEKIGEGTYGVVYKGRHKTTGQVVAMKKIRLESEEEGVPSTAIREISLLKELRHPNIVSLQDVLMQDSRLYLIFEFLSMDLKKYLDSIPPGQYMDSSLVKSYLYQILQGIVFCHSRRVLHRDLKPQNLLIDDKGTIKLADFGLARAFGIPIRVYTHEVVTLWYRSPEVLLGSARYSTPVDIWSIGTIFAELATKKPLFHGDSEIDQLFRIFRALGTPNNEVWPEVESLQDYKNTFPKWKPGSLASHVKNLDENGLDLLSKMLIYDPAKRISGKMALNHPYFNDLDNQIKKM
T2 sequence (P14635 whole entry partner, the tested form may be a part): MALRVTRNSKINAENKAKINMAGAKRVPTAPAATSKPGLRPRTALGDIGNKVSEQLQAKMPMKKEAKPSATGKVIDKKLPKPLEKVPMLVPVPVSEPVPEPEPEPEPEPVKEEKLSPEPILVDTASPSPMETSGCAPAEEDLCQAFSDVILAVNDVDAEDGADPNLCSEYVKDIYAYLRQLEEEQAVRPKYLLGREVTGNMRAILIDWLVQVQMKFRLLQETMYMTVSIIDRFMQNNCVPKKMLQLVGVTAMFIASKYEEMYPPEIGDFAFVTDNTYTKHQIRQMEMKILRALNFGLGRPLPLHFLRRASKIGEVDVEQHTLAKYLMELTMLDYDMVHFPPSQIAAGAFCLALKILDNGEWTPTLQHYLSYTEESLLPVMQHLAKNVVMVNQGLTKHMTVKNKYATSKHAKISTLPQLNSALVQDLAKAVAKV
How it was run: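 IC50 derived by four-parameter logistic fit of DMSO-normalized acceptor/donor (610/450 nm) BRET ratio. Compound and Tracer K-10 were applied together for 2 h at 37° C to 293 or 293T cells transfected 24 h earlier with CDK1-NanoLuc fusion and cyclin B1.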

[3] = system: Phospho-Rb Ser807/811 in OVCAR3 cells; experiment: OVCAR3 Phospho-Rb Ser807/811 HTRF assay; details: OVCAR3 cells, Phospho-Rb Ser807/811 HTRF, 1 hour incubation, read-out: pRb-OVCAR3 IC50
Experimental: Cells were trypsinized and resuspended in 1 mM hydroxyurea (Sigma; H8627), 90% RPMI and 10% fetal bovine serum. […] Dose response curve normalized to DMSO control was plotted using four-parameter logistic model for IC50 calculation.

[4] = biological target: T3, CDK2-NanoLuc fusion with CCNE1 in 293T or 293 cells (Homo sapiens, UniProt P24941); experiment: NanoBRET Target Engagement (TE) Intracellular Kinase Assay, CDK2/CCNE1; details: NanoBRET TE intracellular kinase assay, 2-hour incubation, read-out: NanoBRET-CDK2/E1 IC50
T3 construct: host or cells: 293T (ATCC CRL-3216) or 293 (ATCC CRL-1573)

| SMILES | IC50 [1] | IC50 [2] | IC50 ([3]; Homo sapiens, OVCAR-3, 1 h) | IC50 [4] | IC50 [3] |
| --- | --- | --- | --- | --- | --- |
| C#C[C@H](C)NC(=O)O[C@@H]1CC[C@H](c2cc(NC(=O)COc3cc(OC)cc(O)c3C=O)n[nH]2)C1 [Compound 216] | 9910 nM | 15 nM | 64.6 nM | 4.44 nM | – |
| COc1cc(O)c(C=O)c(OCC(=O)Nc2cc([C@H]3CC[C@@H](OC(=O)NN4CCCC4)C3)[nH]n2)c1 [Compound 217] | > 10000 nM | 44.7 nM | 60.9 nM | 2.98 nM | – |
| C#CC1(NC(=O)O[C@@H]2CC[C@H](c3cc(NC(=O)COc4cc(OC)cc(O)c4C=O)n[nH]3)C2)CC1 [Compound 218] | 2900 nM | 5.53 nM | 18.2 nM | 2.33 nM | – |
| COc1cc(O)c(C=O)c(OCC(=O)Nc2cc([C@H]3CC[C@@H](OC(=O)N4C[C@@H]5CC[C@H]4C5)C3)[nH]n2)c1 [Compound 219] | 844 nM | 4.23 nM | 22.6 nM | 1.95 nM | – |
| COc1cc(O)c(C=O)c(OCC(=O)Nc2cc([C@H]3CC[C@@H](OC(=O)N4C5CCCC4C5)C3)[nH]n2)c1 [Compound 220] | 1460 nM | 8.36 nM | 32.1 nM | 2.89 nM | – |
| CCCNC(=O)O[C@@H]1CC[C@H](c2cc(NC(=O)COc3cc(OC)cc(O)c3C=O)n[nH]2)C1 [Compound 221] | 5250 nM | 8.56 nM | 24.1 nM | 1.71 nM | – |
| C#C[C@@H]1CCCN1C(=O)O[C@@H]1CC[C@H](c2cc(NC(=O)COc3cc(OC)cc(O)c3C=O)n[nH]2)C1 [Compound 222] | 2830 nM | 7.61 nM | 63.7 nM | 3.84 nM | – |
| COc1cc(O)c(C=O)c(OCC(=O)Nc2cc([C@H]3C[C@@H](OC(=O)NC(C)C)C3)[nH]n2)c1 [Compound 223] | > 10000 nM | 13.1 nM | – | 4.13 nM | 65.6 nM |
| COc1cc(O)c(C=O)c(OCC(=O)Nc2cc([C@H]3CC[C@@H](OC(=O)N4CCCO4)C3)[nH]n2)c1 [Compound 224] | > 10000 nM | 28.9 nM | 93.6 nM | 2.64 nM | – |
| CCCN(C)C(=O)O[C@@H]1CC[C@H](c2cc(NC(=O)COc3cc(OC)cc(O)c3C=O)n[nH]2)C1 [Compound 225] | 2600 nM | 5.09 nM | 18.7 nM | 2.49 nM | – |
| COc1cc(O)c(C=O)c(OCC(=O)Nc2cc([C@H]3CC[C@@H](OC(=O)N4CC5CC(C5)C4)C3)[nH]n2)c1 [Compound 226] | 3060 nM | 9.17 nM | 63.7 nM | 2.45 nM | – |
| COc1cc(OC)c(C=O)c(OCC(=O)Nc2cc([C@H]3CC[C@@H](OC(=O)N4CCC4(C)C)C3)[nH]n2)c1 [Compound 227] | 1290 nM | 0.61 nM | 18.1 nM | 1.73 nM | – |
| COc1cc(O)c(C=O)c(OCC(=O)Nc2cc([C@H]3CC[C@@H](OC(=O)N4CC5CC4C5)C3)[nH]n2)c1 [Compound 228] | 4170 nM | 4.25 nM | 34.4 nM | 2.27 nM | – |
| COc1cc(O)c(C=O)c(OCC(=O)Nc2cc([C@H]3CC[C@@H](OC(=O)N4C5CCC4CC5)C3)[nH]n2)c1 [Compound 229] | 1900 nM | 1.97 nM | 28.8 nM | 1.75 nM | – |
| COc1cc(O)c(C=O)c(OCC(=O)Nc2cc([C@H]3CC[C@@H](OC(=O)N4CCOCC4)C3)[nH]n2)c1 [Compound 230] | > 10000 nM | 21 nM | 57.8 nM | 2.85 nM | – |
| COc1cc(O)c(C=O)c(OCC(=O)Nc2cc([C@H]3CC[C@@H](OC(=O)N4C5COCC4C5)C3)[nH]n2)c1 [Compound 231, (1R,3S)-3-{5-[2-(2-formyl-3-hydroxy-5-methoxyphenoxy)acetamido]-2H-pyrazol-3-yl}cyclopentyl 3-oxa-6-azabicyclo[3.1.1]heptane-6-carboxylate] | 1430 nM | < 2.64 nM | 18.5 nM | 3.2 nM | – |
| COc1cc(O)c(C=O)c(OCC(=O)Nc2cc([C@H]3CC[C@@H](OC(=O)N4CCCC45CC5)C3)[nH]n2)c1 [Compound 232] | 2300 nM | 4.84 nM | 40.2 nM | 2.18 nM | – |

| SMILES | IC50 [1] | IC50 [2] | IC50 ([3]; Homo sapiens, OVCAR-3, 1 h) | IC50 [4] | IC50 [3] |
| --- | --- | --- | --- | --- | --- |
| COc1cc(O)c(C=O)c(OCC(=O)Nc2cc([C@H]3CC[C@@H](OC(=O)N4CC[C@H](F)C4)C3)[nH]n2)c1 [Compound 233] | 2690 nM | 2.19 nM | 22.1 nM | 2.47 nM | – |
| COc1cc(O)c(C=O)c(OCC(=O)Nc2cc([C@H]3CC[C@@H](OC(=O)N4CC5CC(C4)O5)C3)[nH]n2)c1 [Compound 235] | > 10000 nM | 48.5 nM | 121 nM | 7.6 nM | – |
| COc1cc(O)c(C=O)c(OCC(=O)Nc2cc([C@H]3CC[C@@H](OC(=O)N4CC[C@@H]5C[C@@H]54)C3)[nH]n2)c1 [Compound 236] | 4250 nM | 12.8 nM | 32.2 nM | 1.9 nM | – |
| COc1cc(O)c(C=O)c(OCC(=O)Nc2cc([C@H]3CC[C@@H](OC(=O)N4CC5CC5C4)C3)[nH]n2)c1 (stereo partly shown) [Compound 237] | 4960 nM | 11.6 nM | 55.7 nM | 1.79 nM | – |
| COc1cc(O)c(C=O)c(OCC(=O)Nc2cc([C@H]3CC[C@@H](OC(=O)N4CC[C@H](C)C4)C3)[nH]n2)c1 [Compound 238] | 4100 nM | 9.82 nM | 32.8 nM | 1.64 nM | – |
| COc1cc(O)c(C=O)c(OCC(=O)Nc2cc([C@H]3CC[C@@H](OC(=O)N4CCC4(C)C)C3)[nH]n2)c1 [Compound 239, (1R,3S)-3-(3-(2-(2-formyl-3-hydroxy-5-methoxyphenoxy)acetamido)-1H-pyrazol-5-yl)cyclopentyl 2,2-dimethylazetidine-1-carboxylate] | 846 nM | 2.14 nM | 13.1 nM | 1.89 nM | – |
| COc1cc(O)c(C=O)c(OCC(=O)Nc2cc([C@H]3CC[C@@H](OC(=O)N4CC[C@@H](F)C4)C3)[nH]n2)c1 [Compound 240] | 2800 nM | 7.4 nM | 22.1 nM | 1.54 nM | – |
| COc1cc(O)c(C=O)c(OCC(=O)Nc2cc([C@@H]3CCC(OC(=O)N4CCCC4)C3)[nH]n2)c1 (stereo partly shown) [Compound 241] | 3850 nM | 22.9 nM | 77.6 nM | 3.05 nM | – |
| COc1cc(O)c(C=O)c(OCC(=O)Nc2cc([C@H]3CC[C@@H](OC(=O)N4CC[C@H](OC)C4)C3)[nH]n2)c1 [Compound 242] | > 10000 nM | 13.1 nM | 66.9 nM | 5.05 nM | – |
| COc1cc(O)c(C=O)c(OCC(=O)Nc2cc([C@H]3CC[C@@H](OC(=O)N4CCCC4(C)C)C3)[nH]n2)c1 [Compound 243] | 484 nM | 2.41 nM | 17.6 nM | 2.23 nM | – |
| COc1cc(O)c(C=O)c(OCC(=O)Nc2cc([C@H]3CC[C@@H](OC(=O)N(C)C(C)C)C3)[nH]n2)c1 [Compound 244, (1R,3S)-3-{5-[2-(2-formyl-3-hydroxy-5-methoxyphenoxy)acetamido]-2H-pyrazol-3-yl}cyclopentyl N-isopropyl-N-methylcarbamate] | 1320 nM | 4.17 nM | 21.2 nM | 1.42 nM | – |
| COc1cc(O)c(C=O)c(OCC(=O)Nc2cc([C@H]3CC[C@@H](OC(=O)N4CCC[C@@H]4C)C3)[nH]n2)c1 [Compound 245] | 723 nM | 3.95 nM | 25.4 nM | 3.12 nM | – |
| COc1cc(O)c(C=O)c(OCC(=O)Nc2cc([C@H]3CC[C@@H](OC(=O)N4CCC(F)(F)C4)C3)[nH]n2)c1 [Compound 246] | 6110 nM | 9.45 nM | 33 nM | 2.78 nM | – |
| COc1cc(O)c(C=O)c(OCC(=O)Nc2cc([C@@H]3CC[C@H](OC(=O)NC(C)C)C3)[nH]n2)c1 [Compound 247] | 7210 nM | 19.4 nM | 101 nM | 15.8 nM | – |
| CC(C)NC(=O)O[C@@H]1CC[C@H](c2cc(NC(=O)COc3cc(F)cc(O)c3C=O)n[nH]2)C1 [Compound 248] | 575 nM | 106 nM | 1950 nM | 20.2 nM | – |
| COc1cc(O)c(C=O)c(OCC(=O)Nc2cc([C@H]3CC[C@@H](OC(=O)NC45CC(C4)C5)C3)[nH]n2)c1 [Compound 249, (1R,3S)-3-{5-[2-(2-formyl-3-hydroxy-5-methoxyphenoxy)acetamido]-2H-pyrazol-3-yl}cyclopentyl N-{bicyclo[1.1.1]pentan-1-yl}carbamate] | 1190 nM | 4.5 nM | 26.6 nM | 1.5 nM | – |
| CC(C)NC(=O)O[C@@H]1CC[C@H](c2cc(NC(=O)COc3cc(OC(C)C)cc(O)c3C=O)n[nH]2)C1 [Compound 250] | 9240 nM | 37.3 nM | 65.8 nM | 1.86 nM | – |
